From PubChem BioAssay AID1963865 (Molecular Pharmacology Branch, DTP, NCI, 2024)

Tested on: KRAS PDC multicell spheroid viability
Experiment: Anticancer human tumor 825966-067-R-J1-PDC patient-derived colon carcinoma cell line growth inhibition [KRAS2]
Conditions: for IC50: curve of first compound; for viability, T/C: stronger effect = lower value
Procedure, shortened: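 Combination screen of spheroid viability in tumor-cell co-cultures with endothelial (HUVEC) and mesenchymal stem cell stroma. Each agent was tested in half-log dilutions, topping at clinical Cmax or at 10 microM without a known Cmax.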

[1] = second compound 0.0316 µM, first compound 0.01 µM
[2] = second compound 0.0316 µM, first compound 0.0316 µM
[3] = second compound 0.0316 µM, first compound 0.1 µM
[4] = second compound 0.0316 µM, first compound 0.316 µM
[5] = second compound 0.0316 µM, first compound 1 µM
[6] = second compound 0.0316 µM, first compound 3.16 µM
[7] = second compound 0.1 µM, first compound 0.01 µM
[8] = second compound 0.1 µM, first compound 0.0316 µM
[9] = second compound 0.1 µM, first compound 0.1 µM
[10] = second compound 0.1 µM, first compound 0.316 µM
[11] = second compound 0.1 µM, first compound 1 µM
[12] = second compound 0.1 µM, first compound 3.16 µM
[13] = second compound 0.316 µM, first compound 0.01 µM
[14] = second compound 0.316 µM, first compound 0.0316 µM
[15] = second compound 0.316 µM, first compound 0.1 µM
[16] = second compound 0.316 µM, first compound 0.316 µM
[17] = second compound 0.316 µM, first compound 1 µM
[18] = second compound 0.316 µM, first compound 3.16 µM
[19] = second compound 1 µM, first compound 0.01 µM
[20] = second compound 1 µM, first compound 0.0316 µM
[21] = second compound 1 µM, first compound 0.1 µM
[22] = second compound 1 µM, first compound 0.316 µM
[23] = second compound 1 µM, first compound 1 µM
[24] = second compound 1 µM, first compound 3.16 µM
[25] = second compound 3.16 µM, first compound 0.01 µM
[26] = second compound 3.16 µM, first compound 0.0316 µM
[27] = second compound 3.16 µM, first compound 0.1 µM
[28] = second compound 3.16 µM, first compound 0.316 µM
[29] = second compound 3.16 µM, first compound 1 µM
[30] = second compound 3.16 µM, first compound 3.16 µM
[31] = second compound 0.0316 µM, first compound 10 µM
[32] = second compound 0.1 µM, first compound 10 µM
[33] = second compound 0.316 µM, first compound 10 µM
[34] = second compound 1 µM, first compound 10 µM
[35] = second compound 3.16 µM, first compound 10 µM
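Also: spheroids exposed to compounds for 7 days.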
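For viability, T/C in this document: 100% = DMSO vehicle control viability.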

Q: For `CC(=O)OC12COC1CC(O)C1(C)C(=O)C(O)C3=C(C)C(OC(=O)C(O)C(NC(=O)OC(C)(C)C)c4ccccc4)CC(O)(C(OC(=O)c4ccccc4)C21)C3(C)C` (stereo not given) + C=CC(=O)N1CCN(c2nc(OCC3CCCN3C)nc3c2CCN(c2cccc4cccc(C)c24)C3)CC1CC#N, which IC50 (second compound 0.0316 µM) is on record?
A: The IC50 was less than 0.01 µM.

Q: And the IC50 (second compound 0.1 µM)?
A: Its IC50 is less than 0.01 µM.

Q: What about the IC50 (second compound 0.316 µM) of the same compound?
A: The IC50 was less than 0.01 µM.

Q: What about the IC50 (second compound 1 µM) of the same compound?
A: The IC50 was less than 0.01 µM.

Q: What about the IC50 (second compound 3.16 µM) of the same compound?
A: Its IC50 is less than 0.01 µM.

Q: What about the viability, T/C [1] of the same compound?
A: Its viability, T/C is 24.8%.

Q: What about the viability, T/C [2] of the same compound?
A: Its viability, T/C is 28%.

Q: What about the viability, T/C [3] of the same compound?
A: Its viability, T/C is 23.1%.

Q: What about the viability, T/C [4] of the same compound?
A: Its viability, T/C is 23.1%.

Q: What about the viability, T/C [5] of the same compound?
A: The viability, T/C was 24.5%.

Q: And the viability, T/C [6]?
A: Its viability, T/C is 40.3%.

Q: And the viability, T/C [7]?
A: Its viability, T/C is 27%.

Q: And the viability, T/C [8]?
A: The viability, T/C was 29.6%.

Q: What about the viability, T/C [9] of the same compound?
A: Its viability, T/C is 32.1%.

Q: And the viability, T/C [10]?
A: Its viability, T/C is 22%.

Q: And the viability, T/C [11]?
A: Its viability, T/C is 28.6%.

Q: And the viability, T/C [12]?
A: The viability, T/C was 35.9%.

Q: What about the viability, T/C [13] of the same compound?
A: The viability, T/C was 23%.

Q: And the viability, T/C [14]?
A: Its viability, T/C is 21.2%.

Q: What about the viability, T/C [15] of the same compound?
A: Its viability, T/C is 25.4%.

Q: And the viability, T/C [16]?
A: Its viability, T/C is 24.5%.

Q: What about the viability, T/C [17] of the same compound?
A: The viability, T/C was 26.2%.

Q: What about the viability, T/C [18] of the same compound?
A: The viability, T/C was 27.3%.

Q: What about the viability, T/C [19] of the same compound?
A: The viability, T/C was 28.6%.

Q: What about the viability, T/C [20] of the same compound?
A: The viability, T/C was 25%.

Q: And the viability, T/C [21]?
A: Its viability, T/C is 30%.

Q: And the viability, T/C [22]?
A: Its viability, T/C is 20%.

Q: What about the viability, T/C [23] of the same compound?
A: Its viability, T/C is 27%.

Q: And the viability, T/C [24]?
A: The viability, T/C was 26.1%.

Q: And the viability, T/C [25]?
A: The viability, T/C was 31.7%.

Q: What about the viability, T/C [26] of the same compound?
A: The viability, T/C was 23.2%.

Q: What about the viability, T/C [27] of the same compound?
A: Its viability, T/C is 21.2%.

Q: What about the viability, T/C [28] of the same compound?
A: The viability, T/C was 23.8%.

Q: What about the viability, T/C [29] of the same compound?
A: The viability, T/C was 17.2%.

Q: And the viability, T/C [30]?
A: Its viability, T/C is 29.6%.

Q: What does the source list for `CN(C)C/C=C/C(=O)Nc1cc2c(Nc3ccc(F)c(Cl)c3)ncnc2cc1O[C@H]1CCOC1` + C=CC(=O)N1CCN(c2nc(OCC3CCCN3C)nc3c2CCN(c2cccc4cccc(C)c24)C3)CC1CC#N?
A: IC50 (second compound 0.0316 µM): > 0.1 µM; IC50 (second compound 0.1 µM): > 0.1 µM; IC50 (second compound 0.316 µM): > 0.1 µM; IC50 (second compound 1 µM): > 0.1 µM; IC50 (second compound 3.16 µM): > 0.1 µM; viability, T/C (second compound 0.0316 µM, first compound 0.000316 µM): 92%; viability, T/C (second compound 0.0316 µM, first compound 0.001 µM): 105%; viability, T/C (second compound 0.0316 µM, first compound 0.00316 µM): 86%; viability, T/C [1]: 83.4%; viability, T/C [2]: 94.5%; viability, T/C [3]: 99.7%; viability, T/C (second compound 0.1 µM, first compound 0.000316 µM): 114%; viability, T/C (second compound 0.1 µM, first compound 0.001 µM): 107%; viability, T/C (second compound 0.1 µM, first compound 0.00316 µM): 100%; viability, T/C [7]: 94.3%; viability, T/C [8]: 86.8%; viability, T/C [9]: 88%; viability, T/C (second compound 0.316 µM, first compound 0.000316 µM): 100%; viability, T/C (second compound 0.316 µM, first compound 0.001 µM): 107%; viability, T/C (second compound 0.316 µM, first compound 0.00316 µM): 74.8%; viability, T/C [13]: 83.8%; viability, T/C [14]: 77%; viability, T/C [15]: 81.4%; viability, T/C (second compound 1 µM, first compound 0.000316 µM): 94.7%; viability, T/C (second compound 1 µM, first compound 0.001 µM): 84.9%; viability, T/C (second compound 1 µM, first compound 0.00316 µM): 89.3%; viability, T/C [19]: 98.7%; viability, T/C [20]: 107%; viability, T/C [21]: 77.5%; viability, T/C (second compound 3.16 µM, first compound 0.000316 µM): 111%; viability, T/C (second compound 3.16 µM, first compound 0.001 µM): 83.6%; viability, T/C (second compound 3.16 µM, first compound 0.00316 µM): 87.5%; viability, T/C [25]: 100%; viability, T/C [26]: 67.7%; viability, T/C [27]: 114%

Q: What does the source list for `COC(=O)c1ccc2c(C(=Nc3ccc(N(C)C(=O)CN4CCN(C)CC4)cc3)c3ccccc3)c(O)[nH]c2c1` + C=CC(=O)N1CCN(c2nc(OCC3CCCN3C)nc3c2CCN(c2cccc4cccc(C)c24)C3)CC1CC#N?
A: IC50 (second compound 0.0316 µM): 0.591 µM; IC50 (second compound 0.1 µM): 0.843 µM; IC50 (second compound 0.316 µM): 0.54 µM; IC50 (second compound 1 µM): 0.5 µM; IC50 (second compound 3.16 µM): 0.131 µM; viability, T/C [2]: 78.2%; viability, T/C [3]: 94.9%; viability, T/C [4]: 75%; viability, T/C [5]: 28.2%; viability, T/C [6]: 0.37%; viability, T/C [31]: 0.12%; viability, T/C [8]: 107%; viability, T/C [9]: 84.5%; viability, T/C [10]: 96.4%; viability, T/C [11]: 42%; viability, T/C [12]: 0.21%; viability, T/C [32]: 0.13%; viability, T/C [14]: 75.4%; viability, T/C [15]: 83.7%; viability, T/C [16]: 95.8%; viability, T/C [17]: 9.82%; viability, T/C [18]: 0.13%; viability, T/C [33]: 0.12%; viability, T/C [20]: 78.8%; viability, T/C [21]: 87.2%; viability, T/C [22]: 73.9%; viability, T/C [23]: 13.7%; viability, T/C [24]: 1.46%; viability, T/C [34]: 0.22%; viability, T/C [26]: 87%; viability, T/C [27]: 27.7%; viability, T/C [28]: 65.5%; viability, T/C [29]: 10.5%; viability, T/C [30]: 0.29%; viability, T/C [35]: 0.2%

Q: What does the source list for `O=C(c1cc(Cc2n[nH]c(=O)c3ccccc23)ccc1F)N1CCN(C(=O)C2CC2)CC1` + C=CC(=O)N1CCN(c2nc(OCC3CCCN3C)nc3c2CCN(c2cccc4cccc(C)c24)C3)CC1CC#N?
A: IC50 (second compound 0.0316 µM): > 10 µM; IC50 (second compound 0.1 µM): > 10 µM; IC50 (second compound 0.316 µM): > 10 µM; IC50 (second compound 1 µM): > 10 µM; IC50 (second compound 3.16 µM): > 10 µM; viability, T/C [2]: 100%; viability, T/C [3]: 119%; viability, T/C [4]: 96.8%; viability, T/C [5]: 77.1%; viability, T/C [6]: 98.4%; viability, T/C [31]: 80.2%; viability, T/C [8]: 98.7%; viability, T/C [9]: 100%; viability, T/C [10]: 91.8%; viability, T/C [11]: 92.3%; viability, T/C [12]: 109%; viability, T/C [32]: 95.4%; viability, T/C [14]: 94.7%; viability, T/C [15]: 91.2%; viability, T/C [16]: 104%; viability, T/C [17]: 94.1%; viability, T/C [18]: 96.2%; viability, T/C [33]: 97.9%; viability, T/C [20]: 87.1%; viability, T/C [21]: 94.8%; viability, T/C [22]: 91%; viability, T/C [23]: 93.2%; viability, T/C [24]: 99.6%; viability, T/C [34]: 125%; viability, T/C [26]: 96.3%; viability, T/C [27]: 108%; viability, T/C [28]: 111%; viability, T/C [29]: 110%; viability, T/C [30]: 123%; viability, T/C [35]: 109%
